According to patent US5478807A, “Use of relaxin in the treatment of bradycardia” (Genentech, Inc., priority 1992, dated 1995):
“And” between values parts separate entries of the source, which are not always exact repeats. Equal values may be shown once.

How the values were obtained:
left atrium = assay: Left atrial contraction, isolated electrically paced left atrium; set-up: species or system rat; details: for left atrium contractile force % Δ, mean (X): mean of four left atria; for left atrium contractile force % Δ: single experiment
Method: Krebs-Henseleit solution was prepared with the following composition (in millimoles): NaCl 118; KCl 4.7; MgSO4 1.64; NaHCO3 24.88; KH2 PO4 1.18; d-glucose 11.1; bubbled with 95% O2 /5% CO2; CaCl2 2.52.
Human (H2) relaxin (hRLx-2, 1.5 mg/ml; Genentech) was diluted fresh daily to desired concentrations (500:1; 5000:1; 50000:1) in Krebs-Henseleit solution.
Male Wistar rats (Charles River) weighing 475-525 g each, were anesthetized with sodium pentobarbital (60 mg/kg). After thoracotomy, the heart was removed rapidly and placed in cold (4° C.) Krebs-Henseleit solution until spontaneous contractions ceased. The right and left atria were excised.
Tissue was bathed in an organ chamber holding 42 ml Krebs-Henseleit solution that was aerated with 95% O2 /5% CO2 and heated to 37° C. with a temperature controlled water jacket. Tissue contractions were measured with force-displacement transducers (Grass FT 0.3) and recorded on chart paper (Grass moled 79 polygraph). The rates of contractions were determined with a cardiotachometer (Grass). Electrical stimulation of tissue was induced through bipolar clip electrodes connected to a stimulator through a stimulus isolation unit (Grass model S48).
A stainless steel clip was attached to the distal end of the left atrium and the proximal end was attached to a bipolar electrode. The electrode assembly was secured within the organ chamber and the upper clip was attached to the force-displacement transducer. The position of the transducer was adjusted to yield 1.0 g resting tension. The left atrium was stimulated at 3Hz at 1.5×threshold. The duration (3 msec) and intensity of the pulses (1.5-3.0 Volts) were kept constant throughout an experiment.
In all experiments the atria were allowed to stabilize for 30 minutes prior to addition of drugs. […] Thus, cumulative dose-response curves were generated. At 10 minute intervals, relaxin was added to each organ chamber to obtain bath concentrations of 100 pg/ml, 300 pg/ml, 1 ng/ml, 3 ng/ml, 10 ng/ml and 30 ng/ml.
Measurement of contraction rate and force of contraction following each dose of relaxin were obtained after responses reached a steady state. Rate was determined directly from the output of the cardiotachometer. Force of contraction was measured as the magnitude of the contractile twitches. In order to adjust for variations between tissues, data are expressed as percent changes from pre-drug values, as means±standard errors. Measurements of rate were obtained in seven right atria; measurement of contractile force were obtained in four left atria.

[1] = biological target: T1, relaxin binding sites in the rat uterus (Rattus norvegicus, UniProt Q6R6I6); assay: Displacement of 32P-relaxin binding in rat uterus tissue sections (autoradiography)
T1 construct: The frozen tissues were sectioned to 16 μm thickness; from tissue; host or cells: rat uterus (uterine horn, cervix) frozen sections
T1 sequence (Q6R6I6 1-758): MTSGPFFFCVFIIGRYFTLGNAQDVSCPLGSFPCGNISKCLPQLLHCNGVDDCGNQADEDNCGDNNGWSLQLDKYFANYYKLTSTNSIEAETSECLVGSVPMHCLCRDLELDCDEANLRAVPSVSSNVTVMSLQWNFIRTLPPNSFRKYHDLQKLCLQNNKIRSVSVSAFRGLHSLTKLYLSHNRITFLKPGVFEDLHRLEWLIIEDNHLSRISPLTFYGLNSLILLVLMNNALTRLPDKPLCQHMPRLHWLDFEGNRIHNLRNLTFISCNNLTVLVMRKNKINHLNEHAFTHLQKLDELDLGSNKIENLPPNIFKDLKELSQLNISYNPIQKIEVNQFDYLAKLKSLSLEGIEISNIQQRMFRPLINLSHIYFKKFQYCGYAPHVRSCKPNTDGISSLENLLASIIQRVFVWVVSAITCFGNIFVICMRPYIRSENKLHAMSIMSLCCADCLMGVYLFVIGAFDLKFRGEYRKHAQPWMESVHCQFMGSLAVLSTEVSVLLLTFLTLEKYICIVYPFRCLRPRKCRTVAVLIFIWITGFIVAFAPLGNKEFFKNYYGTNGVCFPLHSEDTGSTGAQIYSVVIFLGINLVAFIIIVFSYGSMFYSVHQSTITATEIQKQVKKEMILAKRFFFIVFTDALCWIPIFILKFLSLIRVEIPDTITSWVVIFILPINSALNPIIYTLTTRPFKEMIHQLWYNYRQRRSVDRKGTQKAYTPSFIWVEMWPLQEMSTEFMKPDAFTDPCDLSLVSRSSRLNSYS
Method: Ten-week-old normal male and cyclic female Sprague-Dawley rats (Charles River Breeding Laboratories, Wilmonton, Mass.) were used for binding specificity and binding displacement experiments. These were given food and water ad libidium and housed in a room with the ambient temperature controlled around 21° C.
The frozen tissues were sectioned to 16 μm thickness using a Reichert-Jung Model 2800 Frigocut cryostat (Cambridge Instruments). Tissue sections were fixed onto gelatin/chromium potassium sulfate treated microscope slides by warming, and immediately refrozen and stored at -80° C. overnight or longer. […]
Regions of binding were determined by overlaying the autoradiographs with adjacent sections counterstained with hematoxylin-eosin. […] Pseudocolor reconstruction and quantitative analysis of ^32 P-relaxin binding autoradiographs were performed with a RAS-3000 image analysis system (Amersham). The OD or radioactivities (cpm) of bound ^32 P relaxin (maximum binding in a particular region) were quantified by computerized densitometry based on parallel sets of ^32 P-relaxin standards (ranging from 50 to 2000 cpm) blotted onto nitrocellulose membranes (Trans-Blot SF, Bio-Rad, Richmond, Calif.). […] The dissociation constant (Kd) for relaxin was calculated by the method of Cheng and Prusoff [Biochem. Pharmacol. 22, 3099-3108 (1973)].

Q: Which results are given for relaxin?
A: left atrium contractile force % Δ, mean (X) (left atrium; 100 pg): -6%; left atrium contractile force % Δ (left atrium; 100 pg, change from pre-drug value): -12% and -5% and -4% and -3%; left atrium contractile force % Δ, mean (X) (left atrium; 300 pg): -9.5%; left atrium contractile force % Δ, mean (X) (left atrium; 1 ng): 1.0%; left atrium contractile force % Δ, mean (X) (left atrium; 3 ng): 14.3%; left atrium contractile force % Δ, mean (X) (left atrium; 10 ng): 30%; left atrium contractile force % Δ (left atrium; 10 ng): 22% and 38% and 40% and 20%; left atrium contractile force % Δ, mean (X) (left atrium; 30 ng): 37.8%; peak decrease in contractile force (left atrium; at 300 pg/ml): 10%; peak increase in contractile force (left atrium; at 30 ng/ml): 38%; point of half maximal increase in contractile force (left atrium; left atrium): about 4.8 ng/ml; Kd ([1]; rat uterus (uterine horn, cervix), displacement of 100 pM 32P-relaxin, mean±S.E. of two regions, read-out: dissociation constant (Kd)): 1.3 ± 0.22 nM; extent of displacement of 32P-relaxin binding ([1]; uterus, increasing concentrations of unlabeled relaxin): partial displacement
